The record followed here is patent US20230174933A1, “METHODS OF MAKING CHIMERIC ANTIGEN RECEPTOR-EXPRESSING CELLS” (Novartis AG, priority 2020, published 2023).

Assay [1] relates to T cells activated with αCD3αCD28 beads. Briefly: Fold expansion, cell size and viability of cytokine treated T cells after TCR engagement. Format: cell-based. Particulars: T cells activated with αCD3αCD28 beads at day 0 in the presence of cytokine. The text has this:
FIG. 12: Fold expansion of cytokine treated T cells after TCR engagement. T cells were activated with αCD3αCD28 beads at day 0 in the presence of indicated cytokines and then monitored for cell numbers at indicated time points.
T cells were activated with αCD3αCD28 beads at day 0 in the presence of indicated cytokines and then monitored for cell size (FIG. 13A) and viability (FIG. 13B) at indicated time points.

The next assay relates to T cells. Kind of assay: T cell expansion with cytokines after αCD3/αCD28 bead stimulation. Format: cell-based. The method, then:
Previously frozen T cells were thawed and contacted with αCD3/αCD28 dynal beads (cell to bead ratio of 1 to 3) in the presence of indicated cytokines at day 0. From day 3, twice more T cell growth media (RPMI1640, 10% FBS, 2 mM L-glutamin, 100 μM non-essential amino acids, 1 mM sodium pyruvate, 10 mM Hepes, 55 μM β-mercaptoethanol, 10% FBS, and 100 U/ml of penicillin-streptomycin) was added to the plate with indicated cytokines (without cytokine, rhIL2 (50 IU/ml, Novartis), IL6 (long/ml, R&D systems), IL7 (long/ml, Peprotech), IL15 (long/ml, Peprotech), and IL21 (long/ml, Peprotech)) at day 3, 5, 6, 9, 12, 15, and 18.
Cells were harvested at indicated time points and then stained with live/dead dye (eFluro780, eBioscience), CD3 (BioLegend, clone#: OKT3), CD4 (BioLegend, clone#: OKT4), CD8 (BD Bioscience, clone#: RPA-T8), CD45RO (BioLegend, clone#: UCHL1), CCR7 (BioLegend, clone#: G043H7), CD27 (BD Horizon, clone#: L128), CD127 (BioLegend, clone#: A019D5), CD57 (BioLegend, clone#: HCD57), CD126 (BioLegend, clon#: UV4), and CD130 (R&D Systems, clone#: 28126) antibodies. The cells were acquired by FACS Fortessa and then FlowJo program was used for data analysis.

The next assay concerns BCMA-CAR. Kind of assay: ARM-BCMA CAR expression kinetics in vitro with or without AZT (FACS). Particulars: AZT 30 μM and 100 μM. It is filed as cell-based. The protocol:
In contrast to TM which measures lentiviral integration of the CAR transgene after 8-9 days, in the ARM process, the lentiviral transgene may not be fully integrated and truly expressed within 24 h post lentiviral addition, as lentiviral pseudotransduction could occur (Haas D L, et al., (2000) Mol Ther; 2(1):71-80; Galla M, et al., (2004) Mol Cell; 16(2):309-15). […] Flow cytometry (FACS) analyses were performed to detect CAR surface expression at 24 h, 48 h, 72 h, 96 h and 168 h post T cell activation and transduction with the lentiviral vector. In some cases, ARM-BCMA CAR and an aliquot of this product were frozen down immediately upon harvest for additional characterization in other assays.

The target in assay [2] is T1, BCMA (TNFRSF17) of the commercial human plasma membrane protein array (human, UniProt Q02223 1-184, limits assumed).
T1 sequence (looked up): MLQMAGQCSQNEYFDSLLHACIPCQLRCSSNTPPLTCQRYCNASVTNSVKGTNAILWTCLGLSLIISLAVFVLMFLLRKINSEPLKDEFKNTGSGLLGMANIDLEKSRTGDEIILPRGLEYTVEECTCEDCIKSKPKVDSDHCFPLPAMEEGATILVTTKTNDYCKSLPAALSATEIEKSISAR
Kind of assay: commercial human plasma membrane protein array.

Regarding IL15: cytokine, in assay [1], the cell size entry was “did not affect” and the viability entry is “did not affect”. Further, in the assay with T cells, the “expansion of IL6Rβ expressing cells” value is reported as “enhanced expansion of IL6Rβ expressing cells”. Also, the T cell expansion result in the assay on T cells (αCD3/αCD28 bead stimulated T cells plus cytokine) is on record as “showing the greatest enhancement”.

In the case of `Cc1cn([C@H]2C[C@H](N=[N+]=[N-])[C@@H](CO)O2)c(=O)[nH]c1=O` [AZT, 3′-azido-3′-deoxythymidine], the “inhibition of CAR expression” value with BCMA-CAR is reported as “effectively inhibit CAR expression”.

B1: anti-human BCMA single chain antibody variable fragment (scFv) (PI61) (scFv)
scFv: QVQLQESGGGVVQPGRSLRLSCAASGFTFSSYGMHWVRQAPGKGLEWVAVISYDGSNKYYADSVKGRFTISRDNSKNTLYLQMNSLRAEDTAVYYCGGSGYALHDDYYGLDVWGQGTLVTVSSGGGGSGGGGSGGGGSQSALTQPASVSGSPGQSITISCTGTSSDVGGYNYVSWYQQHPGKAPKLMIYDVSNRPSGVSNRFSGSKSGNTASLTISGLQAEDEADYYCSSYTSSSTLYVFGSGTKVTVL
notes: also called PI61 scFv
Consider B1, for which, in assay [2], the binding result was “binds”.
